Data set [1] relates to Alopecurus myosuroides. As to the kind of experiment: Herbicidal post-emergence action. It is filed as in vivo. Particulars: post-emergence method; for herbicidal effect against ALOMY (Alopecurus myosuroides): 80 g/ha. Put shortly:
(§1)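 Greenhouse plants in sandy loam sprayed at the one-leaf stage, 2-3 weeks after sowing, with WP-formulated compound at varied rates in 600 l/ha water plus 0.2% wetting agent. Damage scored visually after about three weeks as percent effect versus untreated controls (100% = dead).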

The subject of data set [2] is Lolium multiflorum. In words: Herbicidal post-emergence action. It is filed as in vivo. Particulars: post-emergence method; for herbicidal effect against LOLMU (Lolium multiflorum): 80 g/ha. Summed up: as §1
In data set [3] the test system is Echinocloa crus-galli. As to the kind of experiment: Herbicidal post-emergence action. It is filed as in vivo. Conditions: post-emergence method; for herbicidal effect against ECHCG (Echinochloa crus-galli): 80 g/ha. Summed up:
as §1

Data set [4] relates to Setaria viridis. In words: Herbicidal post-emergence action. It is filed as in vivo. Particulars: post-emergence method, 80 g/ha. Put shortly:
as §1

Data set [5] concerns Alopecurus myosuroides. In words: Herbicidal pre-emergence action. It is filed as in vivo. Particulars: pre-emergence method, 80 g/ha, greenhouse, visual assessment vs untreated controls. Summed up:
(§2)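 Visual percent damage score (100% = dead plants, 0% = as untreated control) taken three weeks after pre-emergence treatment. Compounds were wettable powders sprayed onto covering soil over seeds in sandy loam, 600 l/ha water with 0.2% wetting agent, several application amounts; pots kept in greenhouse.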

Data set [6] relates to Lolium multiflorum. As to the kind of experiment: Herbicidal pre-emergence action. It is filed as in vivo. Particulars: pre-emergence method, 80 g/ha, greenhouse, visual assessment vs untreated controls. Put shortly:
as §2

In data set [7] the test system is Echinocloa crus-galli. In words: Herbicidal pre-emergence action. It is filed as in vivo. Particulars: pre-emergence method, 80 g/ha, greenhouse, visual assessment vs untreated controls. Summed up: as §2
Data set [8] has as its system Setaria viridis. As to the kind of experiment: Herbicidal pre-emergence action. It is filed as in vivo. Particulars: pre-emergence method, 80 g/ha, greenhouse, visual assessment vs untreated controls. Put shortly:
as §2

The test system of data set [9] is maize. As to the kind of experiment: Crop compatibility small plot trial outdoors with maize, post-emergence, with and without safener. It is filed as in vivo. Particulars: 60 g ai/ha (with safener 60 + 60). On the procedure:
Method crop compatibility small plot trial outdoors: • Customary sowing using a single seed seeder • Plot size: 11.25 m^2/two repetitions
Treatment was carried out using a plot sprayer. The safener was applied together with the test substance as a tank mix using 300 l of water/ha (amounts of herbicide and safener are stated in g of ai/ha). Post-emergence application was carried out at the five-leaf stage of maize. Crop compatibility was assessed visually 14 and 27 days after the treatment (in percent compared to an untreated control), 100% damage=the plants have died, 0% damage=like control plants). • Outside trial with maize (Magixx Duo is cycloxidim-tolerant) • Post-Emergence Method

The subject of data set [10] is monocotylidonous and dicotylidonous weed and crop plants. In words: Herbicidal pre-emergence action (other test plants). It is filed as in vivo. Conditions: pre-emergence method, 80 g/ha, greenhouse, visual assessment vs untreated controls. Put shortly: as §2
Data set [11] shares this test system. As to the kind of experiment: Herbicidal post-emergence action (other test plants). It is filed as in vivo. Particulars: post-emergence method; for herbicidal effect against AVEFA (Avena fatua): 80 g/ha. Summed up:
as §1

Data set [12] has as its system cereals. In words: Container trials with cereals in the greenhouse, use of safeners (Mefenpyr 1 day prior to herbicide application). It is filed as in vivo. Summed up:
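Cereal crop seeds were sown in sandy loam in wood fibre pots and grown in a greenhouse. Before herbicide treatment, the crop plants were sprayed with the safener at a set rate per hectare. Test compounds formulated as wettable powders were sprayed onto green plant parts at 600 l/ha water with 0.2% wetting agent. Damage was rated visually in percent against untreated controls, where 100% means dead plants.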

Data set [13] in a line: Penetration of active compounds through enzymatically isolated cuticles of apple tree leaves. Particulars: 20° C., 60% rh. It is filed as in vitro ADME, apple trees of the cultivar Golden Delicious. On the procedure:
Increase of penetration into the plant by ammonium or phosphonium salts and synergistic increase of penetration into the plant by ammonium/phosphonium salts in combination with penetrants.
In this test, the penetration of active compounds through enzymatically isolated cuticles of apple tree leaves was measured.
Use was made of leaves which, fully developed, were cut from apple trees of the cultivar Golden Delicious. The cuticles were isolated by • initially filling leaf discs punched out and stained with dye on the underside by vacuum infiltration with a pectinase solution (0.2 to 2% strength) buffered to a pH between 3 and 4, • […] allowing the leaf discs treated in this manner to stand until the original leaf structure has dissolved and the non-cellular cuticles have detached.
Only the cuticles, free from hairs and stoma, of the upper sides of the leaves were then used. They were washed repeatedly alternating with water and a buffer solution of pH 7. The clean cuticles obtained were then mounted on Teflon plates and smoothed and dried with a gentle stream of air.
In the next step, the cuticle membranes obtained in this manner were placed into stainless steel diffusion cells (=transport chambers) for membrane transport studies. To this end, the cuticles were placed with a pincet into the centre of the edges, coated with silicone fat, of the diffusion cells and closed with a ring, which had also been treated with fat. The arrangement was chosen such that the morphological outside of the cuticles was facing outwards, i.e. exposed to air, whereas the original inside was facing the interior of the diffusion cells.
The diffusion cells were filled with a 30% strength ethylene glycol/water solution. To determine the penetration, in each case 10 μl of the spray liquor of the composition below were applied to the outside of the cuticles. The spray liquor was prepared using local tap water of medium hardness.
After the spray liquors had been applied, the water was allowed to evaporate and the chambers were inverted and placed into thermostatic […] in which temperature and atmospheric humidity over the cuticles could be adjusted using a gentle stream of air onto the cuticles with the spray coating (20° C., 60% rh). At regular intervals, an autosampler took aliquots and the active compound content was determined by HPLC.
The stated numbers are average values of eight to ten measurements.

[14] abbreviates: 10 days after application, 25 g of a.i./ha.
Where [15] appears, read: 10 days after application, 50 g of a.i./ha.
[16] abbreviates: 10 days after application, 100 g of a.i./ha.
The mark [17] stands for this setting: 10 days after application, 12.5 g of a.i./ha.
[18] abbreviates: 28 days after application, 12.5 g of a.i./ha.
[19] abbreviates: 28 days after application, 25 g of a.i./ha.
[20] abbreviates: 28 days after application, 50 g of a.i./ha.
Where [21] appears, read: 28 days after application, 100 g of a.i./ha.

From US8367873B2, “Phenyl-substituted bicyclooctane-1,3-dione derivatives” (Bayer Cropscience AG, priority 2008, dated 2013) come the findings set out here.

“And” between values parts separate entries of the source, which are not always exact repeats. Equal values may be shown once.

On to `CCc1cc(C)cc(CC)c1C1=C(O)[C@H]2CC3(C[C@H]2C1=O)OCCO3` (relative stereo) [I-a-8], for which the “herbicidal effect against ALOMY (Alopecurus myosuroides)” value (from here on “herbicidal effect against ALOMY”) in [1] came out at 100%. The “herbicidal effect against LOLMU (Lolium multiflorum)” value (from here on “herbicidal effect against LOLMU”) in data set [2] is reported as 100%. The “herbicidal effect against ECHCG (Echinochloa crus-galli)” value (from here on “herbicidal effect against ECHCG”) in data set [3] came out at 100%. The “herbicidal effect against SETVI (Setaria viridis)” value (from here on “herbicidal effect against SETVI”) in data set [4] is recorded as 100%. In addition, the “herbicidal effect ALOMY” value in data set [5] is listed as 100%. For the same compound, in data set [6], the “herbicidal effect LOLMU” value was 100%. Moreover, in data set [7], the “herbicidal effect ECHCG” value is listed as 90%. Also, the “herbicidal effect SETVI” value in data set [8] stood at 90%. For the same compound, the “% damage” value is 0% in data set [9] (maize cultivar Magixx Duo (cycloxidim-tolerant), 14 days after application); 0% in [9] (maize cultivar Magixx Duo (cycloxidim-tolerant), 27 days after application); 94% in data set [9] (maize cultivar Oldham, 14 days after application); 93% in [9] (maize cultivar Oldham, 27 days after application). Moreover, the “herbicidal effect AVEFA” value in [10] came to 60%. The “herbicidal effect against AVEFA (Avena fatua)” value (“herbicidal effect against AVEFA” below) in [11] worked out at 100%. Also, the “Summer barley observed (%)” value in [12] (setting [14]) amounted to 10%; in data set [12] (setting [15]) it was 20%; in data set [12] (setting [16]), 20%. Further, the “Summer wheat observed (%)” value in data set [12] (setting [17]) was 20%; in data set [12] (setting [14]), 40% and 20%; in data set [12] (setting [15]), 50% and 30%; in data set [12] (setting [16]), 60% and 30%.

In the case of `CCc1cc(C)cc(CC)c1C1=C(O)[C@H]2C[C@@]3(COC(C)(C)O3)C[C@H]2C1=O` [I-a-1], the pest or weed control at 80 g/ha was 100% in data set [1] (Alopecurus myosuroides, 504 h, read-out: herbicidal effect against ALOMY (Alopecurus myosuroides)); 100% in [2] (Lolium multiflorum, 504 h, read-out: herbicidal effect against LOLMU (Lolium multiflorum)); 100% in data set [3] (Echinochloa crus-galli, 504 h, read-out: herbicidal effect against ECHCG (Echinochloa crus-galli)); 90% in data set [11] (504 h, Avena fatua, read-out: herbicidal effect against AVEFA (Avena fatua)). Besides, in [5], the “herbicidal effect ALOMY” value came to 90%. Moreover, the “herbicidal effect LOLMU” value in [6] came out at 100%. For the same compound, in data set [7], the “herbicidal effect ECHCG” value turned out to be 50%. For the same compound, the “herbicidal effect SETVI” value in [8] was 60%. The “Penetration after 24 h” value in [13] (a.i. (0.2 g/l) + AS = ammonium sulphate (0.7 g/l)) was found to be 4%; in data set [13] (a.i. (0.2 g/l) + Edenor ME SU 500 EW (2 g/l) + AS (0.7 g/l)), 13%; in data set [13] (a.i. (0.2 g/l) + Edenor Me SU 500 EW (2 g/l)) it was 11.5%; in [13] (a.i. (0.2 g/l) alone, average of eight to ten measurements) it was 2.5%. Besides, the “herbicidal effect AVEFA” value in data set [10] is reported as 80%.

Turning to `CCc1cc(C)cc(CC)c1C1=C([O-])C2CC3(CC2C1=O)OC(C)CC(C)O3.[Na+]` (mixture of isomers) [I-f-19], in data set [1], the “herbicidal effect against ALOMY” value is on record as 100%. In addition, the “herbicidal effect against LOLMU” value in [2] is 100%. Moreover, the “herbicidal effect against ECHCG” value in [3] came to 100%. In addition, the “herbicidal effect against SETVI” value in data set [4] came to 100%. For the same compound, the “herbicidal effect ALOMY” value in data set [5] came to 100%. In addition, in data set [6], the “herbicidal effect LOLMU” value stood at 100%. Further, the “herbicidal effect ECHCG” value in data set [7] turned out to be 100%. In addition, in data set [8], the “herbicidal effect SETVI” value turned out to be 100%. In data set [10], the “herbicidal effect AVEFA” value is on record as 60%. Besides, the “herbicidal effect against AVEFA” value in [11] turned out to be 100%. Moreover, the “Summer barley observed (%)” value in data set [12] (setting [18]) amounted to 10%; in data set [12] (setting [19]) it was 10%; in data set [12] (setting [20]) it was 20%; in data set [12] (setting [21]) it was 50%. In addition, the “Summer wheat observed (%)” value is reported as 20% in data set [12] (setting [18]), 90% in [12] (setting [19]), 97% in [12] (setting [20]) and 99% in data set [12] (setting [21]).

Consider `CCc1cc(C)cc(CC)c1C1=C(O)[C@H]2CC3(C[C@H]2C1=O)OCCCCO3` (relative stereo) [I-a-13], for which the “herbicidal effect against ALOMY” value in data set [1] is reported as 90%. The “herbicidal effect against LOLMU” value in data set [2] is given as 100%. Moreover, the “herbicidal effect against ECHCG” value in data set [3] worked out at 100%. Moreover, the “herbicidal effect against SETVI” value in data set [4] is on record as 90%. In addition, in data set [5], the “herbicidal effect ALOMY” value is on record as 90%. Further, in data set [6], the “herbicidal effect LOLMU” value stood at 100%. Further, the “herbicidal effect ECHCG” value in data set [7] turned out to be 100%. Further, the “herbicidal effect SETVI” value in [8] was found to be 90%. Further, the “herbicidal effect AVEFA” value in data set [10] amounted to 80%. In data set [11], the “herbicidal effect against AVEFA” value is recorded as 90%. The “Summer wheat observed (%)” value turned out to be 40% in [12] (setting [17]), 50% in data set [12] (setting [14]) and 60% in data set [12] (setting [15]).
